EP2388023A1, “Composites on a basis of bioceramics and biodegradable or non biodegradable polymers, containing antibiotics for tissue restitution and products therefrom” (Universidade Federal de Minas Gerais, priority 2006, dated 2007)
Like-named read-outs stand apart in the source and are kept apart here.

System: dentine-pulp complex of rats
Experimental: The objective of this study was to check the inflammatory response of the pulp tissue and dentine tissue formation in rats after the use of composites made from hydroxiapatite as compared to the use of […] (CETEA 143/04). The composites were prepared and sterilized with ethylene oxide, following the procedures described previously. 36 six-week-old rats (Rattus norvergicus) of the Wistar lineage, weighing between 250 and 300g were used in this investigation.
The animals were placed in […] groups: (1) Calcium hydroxide; (2) Bioceramics HA and PLGA; (3) Negative control within four periods of time (1, 7. 15 and 30 days). The animals received an intraperitoneal anesthetic injection of 10 ml Ketamine 10% and 7.5 ml Xilazine 10% (body weight: 0.1ml/100g).
A cavity in the first upper molar oclussal face of the animals was made using a spherical drill n. 1/4 (ISO Maillefer), in total isolation, with water refrigeration and low rotation, keeping the animal in adequate equipment. No additional retention was supplied for the preparation of the cavity. Cavities and exposures were carefully cleaned with cotton balls and distilled water during four minutes. After being sacrificed, the animals underwent the histological processing of their teeth performed with the use of hematoxilin-eosin followed by a qualitative and quantitative histological analysis. The data was subjected to a ANOVA Test statistical analysis. The dentine bridge was measured with a 60-micrometer reticle.

For `[Ca+2].[OH-].[OH-]` [group (1), Calcium hydroxide], the “inflammatory response of the pulp tissue” value (after seven days) was “necrosed areas and a mild acute inflammatory process”, the “inflammatory response of the pulp tissue” value (from the fourteenth day on) was “mild chronic infiltrate” and the “formation of hard tissue” value (onset, periods 1, 7, 15 and 30 days) was “around the thirtieth day”.
